{
  "source": "paper PMC6543911",
  "about": "“Discovery of Coumarin as Microtubule Affinity-Regulating Kinase 4 Inhibitor That Sensitize Hepatocellular Carcinoma to Paclitaxel” (Frontiers in Chemistry, 2019)",
  "key": {"[1]": {"molecular_target": "T1, PDK1 (Homo sapiens, UniProt O15530)", "T1 sequence (O15530 1-556)": "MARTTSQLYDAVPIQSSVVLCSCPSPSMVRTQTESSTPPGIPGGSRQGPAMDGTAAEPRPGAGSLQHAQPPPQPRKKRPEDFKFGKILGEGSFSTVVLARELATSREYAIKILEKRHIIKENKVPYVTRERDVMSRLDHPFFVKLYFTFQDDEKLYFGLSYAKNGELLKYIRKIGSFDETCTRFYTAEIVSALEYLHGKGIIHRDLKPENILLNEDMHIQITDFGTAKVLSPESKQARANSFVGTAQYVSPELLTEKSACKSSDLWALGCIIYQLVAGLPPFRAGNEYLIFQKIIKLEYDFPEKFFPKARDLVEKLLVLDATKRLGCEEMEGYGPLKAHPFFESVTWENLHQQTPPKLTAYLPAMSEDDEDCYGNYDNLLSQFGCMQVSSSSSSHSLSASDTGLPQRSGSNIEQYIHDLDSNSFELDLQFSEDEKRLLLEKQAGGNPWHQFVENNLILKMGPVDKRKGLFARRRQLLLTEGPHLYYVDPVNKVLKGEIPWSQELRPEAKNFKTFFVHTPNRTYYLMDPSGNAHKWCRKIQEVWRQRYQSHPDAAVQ", "assay": "Kinase activity assay using PDK1 as enzyme", "format": "biochemical", "conditions": "duplicate, means ± SEM", "protocol": "(§1) With these coumarins in hand, we performed kinase assay using MARK4 catalytic domain as enzyme to test the MARK4 inhibitory activity of these samples. […] To characterize the selectivity of compound 50, we performed kinase activity assay by using PDK1, AKT1, Src, and MARK4 as enzyme.\n(§2) The kinase activity of MARK4 was measured via ADP-Glo™ kinase assay kit (Promega, USA) under manufacturer's instruction. The recombinant MARK4 catalytic domain was used as kinase. MARK4 (5 nM) activity was tested in a reaction (10 μL) containing 25 mM Tris (pH 7.6), 10 mM MgCl2, 150 mM NaCl, 1 mM EDTA, 1 mM DTT, 100 μM ATP, 5 μM MAP4 and varied concentrations of samples for 30 min. The reaction progress was monitored on Thermo Scientific Varioskan Flash Multimode Reader. Each data point was collected in duplicate and kinetic parameters were obtained using GraphPad Prism v6.0 software."}, "[2]": {"molecular_target": "T2, MARK4 catalytic domain (Homo sapiens, UniProt Q96L34)", "T2 construct": "The recombinant MARK4 catalytic domain was used as kinase; made in house; host or cells: E. coli BL21 (DE3)", "T2 sequence (Q96L34 59-310 limits assumed)": "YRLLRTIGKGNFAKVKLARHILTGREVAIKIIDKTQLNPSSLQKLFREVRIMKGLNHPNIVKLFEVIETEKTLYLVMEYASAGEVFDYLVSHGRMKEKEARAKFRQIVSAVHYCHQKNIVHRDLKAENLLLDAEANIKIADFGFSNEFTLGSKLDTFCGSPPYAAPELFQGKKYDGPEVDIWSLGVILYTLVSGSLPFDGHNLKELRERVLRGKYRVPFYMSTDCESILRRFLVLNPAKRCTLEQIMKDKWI", "assay": "Kinase activity assay (ADP-Glo) using MARK4 as enzyme", "format": "biochemical", "conditions": "for IC50: MARK4 5 nM, 100 μM ATP, 5 μM MAP4, 30 min, duplicate, means ± SEM", "protocol": "MARK4 catalytic domain sequence was subcloned into pET-28a vector. Protein expression in E. coli. BL21 (DE3) was induced by IPTG overnight at 16°C, and the cells were then pelleted by centrifugation at 4,000 rpm for 15 min and resuspended in 20 mL buffer (20 mM Tris-HCl, 150 mM NaCl, 25 mM imidazole pH 8.0). Proteins were purified by nickel-affinity chromatography followed by thrombin cleavage. The proteins were further purified by size-exclusion chromatography using a Superdex 75 column (GE Healthcare).\nas §2"}, "[3]": {"molecular_target": "Src (Homo sapiens, UniProt P12931)", "sequence (P12931 whole entry, species assumed)": "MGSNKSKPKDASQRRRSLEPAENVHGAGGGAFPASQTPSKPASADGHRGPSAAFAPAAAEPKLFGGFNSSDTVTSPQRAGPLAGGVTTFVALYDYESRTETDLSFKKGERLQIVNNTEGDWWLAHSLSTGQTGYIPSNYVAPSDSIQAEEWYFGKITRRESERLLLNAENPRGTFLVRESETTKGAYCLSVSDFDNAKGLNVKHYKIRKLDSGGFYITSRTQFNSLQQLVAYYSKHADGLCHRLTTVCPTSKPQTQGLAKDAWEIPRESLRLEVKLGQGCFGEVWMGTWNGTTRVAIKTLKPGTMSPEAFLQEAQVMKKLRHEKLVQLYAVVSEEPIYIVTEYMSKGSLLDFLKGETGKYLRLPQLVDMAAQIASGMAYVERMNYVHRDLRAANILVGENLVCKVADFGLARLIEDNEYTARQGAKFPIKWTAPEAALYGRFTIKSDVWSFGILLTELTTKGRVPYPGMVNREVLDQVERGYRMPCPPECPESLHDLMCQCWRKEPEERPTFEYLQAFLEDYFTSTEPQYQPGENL", "assay": "Kinase activity assay using Src as enzyme", "format": "biochemical", "conditions": "duplicate, means ± SEM", "protocol": "as §1, §2"}, "[4]": {"molecular_target": "MARK4", "parameters": "method as in Naz et al., 2015", "conditions": "ref Naz et al., 2015; read-out: Kd between BX-795 and MARK4; cited from earlier work"}, "[5]": {"molecular_target": "AKT1 (Homo sapiens, UniProt P31749)", "sequence (P31749 whole entry, species assumed)": "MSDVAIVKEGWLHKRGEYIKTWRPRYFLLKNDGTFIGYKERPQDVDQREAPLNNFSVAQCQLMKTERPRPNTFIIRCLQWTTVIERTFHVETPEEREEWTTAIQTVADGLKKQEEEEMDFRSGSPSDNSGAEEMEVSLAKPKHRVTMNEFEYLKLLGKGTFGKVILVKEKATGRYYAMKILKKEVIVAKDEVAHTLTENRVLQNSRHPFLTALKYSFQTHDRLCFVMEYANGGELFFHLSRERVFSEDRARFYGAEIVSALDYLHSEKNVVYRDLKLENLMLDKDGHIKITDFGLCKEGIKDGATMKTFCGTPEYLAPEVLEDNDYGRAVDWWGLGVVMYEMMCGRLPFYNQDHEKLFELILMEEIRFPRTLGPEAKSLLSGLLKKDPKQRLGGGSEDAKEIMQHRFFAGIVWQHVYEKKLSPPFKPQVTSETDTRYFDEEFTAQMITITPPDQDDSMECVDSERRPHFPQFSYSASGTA", "assay": "Kinase activity assay using AKT1 as enzyme", "format": "biochemical", "conditions": "duplicate, means ± SEM", "protocol": "as §1, §2"}, "[6]": {"molecular_target": "T2, MARK4 catalytic domain", "assay": "Thermal shift assay", "format": "binding", "conditions": "sample 1 μM", "protocol": "Recombinant MARK4 catalytic domain was diluted with PBS and divided into two aliquots, with one aliquot being treated with sample (1 μM) and the other aliquot with vehicle. After 20 min of incubation at room temperature, the respective mixtures were divided into smaller (40 μL) aliquots and heated individually at different temperatures for 3 min, followed by cooling at room temperature for 3 min. The appropriate temperatures were determined in preliminary CETSA experiments. The heated mixtures were centrifuged at 20,000 × g at 4°C for 20 min in order to separate the soluble fractions from precipitates. The supernatants were transferred to new microtubes and analyzed by HPLC."}, "[7]": {"system": "SMMC-7721 cells", "assay": "Cell apoptosis assay (Annexin V-FITC/PI flow cytometry) in SMMC-7721 cells", "format": "cell-based", "conditions": "15 μM, 36 h", "protocol": "(§3) HCC cells (2 × 10^5 cells/well) were plated in a 6-well plate and treated with samples at 37°C for 36 h. After incubation, the cells were harvested and washed with ice-cold PBS. Annexin V-FITC-PI apoptosis detection kit (Abcam, USA) was used for a direct observation of viable, early apoptotic, and late apoptotic cells. Annexin V-FITC and propidium iodide were added according to the manufacturer's instructions, and the samples were incubated in the dark for 15 min. The apoptosis ratio was analyzed using BD FACSCalibur flow cytometry."}, "[8]": {"molecular_target": "T2, MARK4 catalytic domain", "assay": "Surface plasmon resonance (SPR) assay", "format": "binding", "conditions": "different sample concentrations, read-out: dissociation constant (Kd value) toward MARK4", "protocol": "The interaction of small molecule with MARK4 was monitored by surface plasmon resonance (SPR) using a BIAcore T100 instrument (GE Healthcare, USA). In brief, recombinant MARK4 catalytic domain was immobilized on a carboxyl methylated dextran sensor chip (Sensor Chip CM3). A flow channel blocked by ethanolamine was used as control surface. The specific interaction of samples with the immobilized MARK4 catalytic domain was assessed. All samples were analyzed at a flow rate of 30 μL/min with 10 mM HEPES running buffer and contact time of 260 s. The surface was washed and regenerated with a 10 mM glycine-HCl buffer at pH 3.0 followed by a 30 min waiting time for dissolution after each experiment. The analyses were performed in BIAcore T100 evaluation software, version 2.0.2 (GE Healthcare, USA)."}, "[9]": {"system": "HEK-293T cells", "assay": "Cell viability assay in HEK-293T cells", "format": "cell-based", "conditions": "human normal HEK-293T cells"}, "[10]": {"system": "HepG2 cells", "assay": "Colony formation assay of HepG2 cells", "format": "cell-based", "conditions": "compared with vehicle"}, "[11]": {"system": "SMMC-7721 cells", "assay": "Cell viability assay (MTT) in SMMC-7721 cells", "format": "cell-based", "protocol": "(§4) HepG2 and SMMC-7721 cells were cultured in DMEM medium (Gibco) supplemented with 10% FBS (Gibco, USA). For transient transfection, cells were transfected with DNA by Lipofectamine 2000 (Thermo fisher, USA).\n(§5) HCC cells (100 μL/each well, 20,000 cells/mL) were seeded in a 96-well culture plate and allowed to grow for 24 h in DMEM medium supplemented with 10% FBS and 1% penicillin/streptomycin sulfate. The cells were then treated with drugs or vehicle control and incubated in a 5% CO2 incubator for indicated time. At the end of incubation, 10 μL of MTT stock solution (5 mg/mL) was added into each well. The plate was continued to be incubated at 37°C for 4 h before the medium was removed. Then, DMSO (100 μL) was added into each well, followed by thorough shaking. The absorbance of the formazan product was measured at 570 nm on Thermo Scientific Varioskan Flash Multimode Reader. The IC50 value was obtained by fitting dose-response data to a three parametric non-linear regression model using GraphPad Prism 6.0 software."}, "[12]": {"system": "MAP4 phosphorylation", "assay": "Immunoblotting of MAP4 phosphorylation in HepG2 cell lysates", "format": "cell-based", "conditions": "HepG2 cells, 15 μM, 36 h", "protocol": "HepG2 cells (2 × 10^5 cells/well) were plated in a 6-well plate and treated with compound 50 (15 μM) and vehicle at 37°C for 36 h. Cells were harvested, washed with physiological saline, and lysed with RIPA lysis buffer (Beyotime) including phosphatase and protease cocktail (Bimake). Protein was quantified by BCA protein assay kit (Bestbio) and subjected to SDS-PAGE. The separated proteins were transferred onto PVDF membranes and probed with antibody (anti-p-MAP4, anti-MAP4, and anti-actin) and peroxidase-conjugated secondary antibody, which was followed by enhanced chemiluminescence detection (Amersham Biosciences)."}, "[13]": {"system": "HepG2 cells", "assay": "Cell apoptosis assay (Annexin V-FITC/PI flow cytometry) in HepG2 cells", "format": "cell-based", "protocol": "as §3"}, "[14]": {"system": "HepG2 cells", "assay": "Cell viability assay (MTT) in HepG2 cells", "format": "cell-based", "protocol": "as §4, §5"}},
  "data": [
    {"smiles": "O=C(NCCCNc1nc(Nc2cccc(NC(=O)N3CCCC3)c2)ncc1I)c1cccs1", "note": "[BX-795, reference compound]", "values": [
      {"measurement": "IC50", "setting": "[1]", "value": "1.68 ± 0.192", "unit": "µM"},
      {"measurement": "IC50", "setting": "[2]", "value": "4.99 ± 0.812", "unit": "µM"},
      {"measurement": "IC50", "setting": "[3]", "value": "5.87 ± 0.405", "unit": "µM"},
      {"measurement": "Kd", "setting": "[4]", "value": 6.46, "unit": "µM"},
      {"measurement": "IC50", "setting": "[5]", "value": "2.87 ± 0.269", "unit": "µM"}
    ]},
    {"smiles": "COc1ccc2oc(=O)c(C(=O)c3ccccc3)cc2c1", "note": "[Compound 50, 3-benzoyl-6-methoxy-2H-chromen-2-one]", "values": [
      {"measurement": "IC50", "setting": "[1]", "value": "5.97 ± 0.289", "unit": "µM"},
      {"measurement": "IC50", "setting": "[2]", "value": "1.3 ± 0.102", "unit": "µM"},
      {"measurement": "inhibition at 10 µM", "setting": "[2]; at 10 μM", "value": "~80", "unit": "%"},
      {"measurement": "temperature shift of MARK4 thermal stability (ΔT)", "setting": "[6]", "value": 3.13, "unit": "°C"},
      {"measurement": "apoptosis: cell numbers of early and late apoptotic cells", "setting": "[7]", "value": "obviously increased"},
      {"measurement": "Kd", "setting": "[8]", "value": 0.346, "unit": "µM"},
      {"measurement": "concentrations at which cell viability of HEK-293T cells was suppressed", "setting": "[9]", "value": "> 50", "unit": "µM"},
      {"measurement": "colony formation of HepG2 cells", "setting": "[10]", "value": "significantly suppressed"},
      {"measurement": "viability at 2.5 µM", "setting": "[11]; Homo sapiens, 2.5 μM compound alone, read-out: cell viability upon treatment", "value": "> 80", "unit": "%"},
      {"measurement": "IC50", "setting": "[11]; Homo sapiens, MTT", "value": 12.8, "unit": "µM"},
      {"measurement": "inhibitory activity of paclitaxel in the presence of compound", "setting": "[11]; varied paclitaxel concentrations with 2.5 μM compound 50", "value": "remarkably enhanced"},
      {"measurement": "level of MAP4 phosphorylation", "setting": "[12]", "value": "decreased"},
      {"measurement": "IC50", "setting": "[3]", "value": "19 ± 1.32", "unit": "µM"},
      {"measurement": "apoptosis, single agent", "setting": "[13]; 2.5 μM alone", "value": "unable to trigger distinct apoptosis"},
      {"measurement": "apoptosis: cell numbers of early and late apoptotic cells", "setting": "[13]; 15 μM, 36 h", "value": "obviously increased"},
      {"measurement": "apoptosis, combination with paclitaxel", "setting": "[13]; compound 50 2.5 μM in combination with paclitaxel 2.5 μM", "value": "activated HCC apoptosis"},
      {"measurement": "effect of MARK4-knockdown on anti-proliferative activity", "setting": "[14]; HepG2 cells transiently transfected with MARK4-knockdown vs control vectors", "value": "significantly attenuated"},
      {"measurement": "inhibitory activity of paclitaxel in the presence of compound", "setting": "[14]; HepG2 cells, varied paclitaxel concentrations with 2.5 μM compound 50", "value": "remarkably enhanced"},
      {"measurement": "viability at 2.5 µM", "setting": "[14]; Homo sapiens, HepG2 cells, 2.5 μM compound alone, read-out: cell viability upon treatment", "value": "> 80", "unit": "%"},
      {"measurement": "IC50", "setting": "[14]; Homo sapiens, HepG2 cells, MTT", "value": 11.2, "unit": "µM"},
      {"measurement": "IC50", "setting": "[5]", "value": "11.8 ± 0.336", "unit": "µM"}
    ]}
  ]
}
